Data reported in ChEMBL document CHEMBL3593231, “3,5-Diarylpyrazole Derivatives Obtained by Ammonolysis of the Total Flavonoids from Chrysanthemum indicum Extract Show Potential for the Treatment of Alzheimer's Disease” (J Nat Prod, 2015).
pIC50: −log10 of the molar value. Calls of active or inactive are those of the source. The rule behind the calls is not given here.

Experiments:
[1] = molecular target: T1, Amyloid-beta precursor protein (Homo sapiens, UniProt P05067); assay: Inhibition of amyloid beta (1 to 42) (unknown origin) aggregation after 48 hrs by thioflavin T fluorescence assay
T1 sequence (P05067 whole entry): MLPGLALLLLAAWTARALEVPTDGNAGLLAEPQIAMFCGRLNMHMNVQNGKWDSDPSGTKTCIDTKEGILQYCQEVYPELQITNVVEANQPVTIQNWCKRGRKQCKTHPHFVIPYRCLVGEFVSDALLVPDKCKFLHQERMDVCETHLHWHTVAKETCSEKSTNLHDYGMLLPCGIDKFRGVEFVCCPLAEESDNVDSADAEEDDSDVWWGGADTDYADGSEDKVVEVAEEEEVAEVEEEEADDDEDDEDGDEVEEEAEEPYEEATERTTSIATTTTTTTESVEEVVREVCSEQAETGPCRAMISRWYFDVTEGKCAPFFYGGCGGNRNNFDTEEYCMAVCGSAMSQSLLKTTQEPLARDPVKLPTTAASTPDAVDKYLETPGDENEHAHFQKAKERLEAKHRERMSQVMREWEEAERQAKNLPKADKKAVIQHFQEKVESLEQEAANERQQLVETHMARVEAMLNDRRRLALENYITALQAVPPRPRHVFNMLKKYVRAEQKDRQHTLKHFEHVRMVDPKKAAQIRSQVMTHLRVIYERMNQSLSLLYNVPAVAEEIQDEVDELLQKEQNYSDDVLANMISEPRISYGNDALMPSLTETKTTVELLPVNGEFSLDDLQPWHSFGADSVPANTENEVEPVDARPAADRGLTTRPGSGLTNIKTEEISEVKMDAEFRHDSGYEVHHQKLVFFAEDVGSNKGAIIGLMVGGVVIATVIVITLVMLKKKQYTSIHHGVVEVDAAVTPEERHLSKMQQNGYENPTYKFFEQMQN

SH-SY5Y [2] = assay: Cytotoxicity against human SH-SY5Y cells assessed as cell viability at 10 uM after 48 hrs by MTT assay; assay type: cell-based
[3] = molecular target: T1, Amyloid-beta precursor protein; assay: Potency index, ratio of curcumin IC50 to compound IC50 for inhibition of amyloid beta (1 to 42) (unknown origin) aggregation
SH-SY5Y [4] = assay: Neuroprotective activity against amyloid beta (1 to 42)-induced cytotoxicity in human SH-SY5Y cells at 5 to 80 uM after 48 hrs by MTT assay; assay type: functional, cell-based

| pIC50 [1] | Ratio IC50 [3] | Compound | Activity (SH-SY5Y [2]) | Activity (SH-SY5Y [4]) |
| --- | --- | --- | --- | --- |
| 5.54 |  | COc1cc(-c2cc(-c3c(O)cccc3O)[nH]n2)cc(OC)c1O | Non-toxic |  |
| 4.80 |  | Oc1ccc(-c2cc(-c3c(O)cccc3O)[nH]n2)cc1 |  |  |
| 5.37 |  | COc1cc(-c2cc(-c3c(O)cccc3O)[nH]n2)ccc1O | Non-toxic |  |
| 5.89 | 3 | Oc1ccc(-c2cc(-c3c(O)cccc3O)[nH]n2)cc1O | Non-toxic | Active |
